Measured values taken from PubChem BioAssay (NCI).
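Values below derive from 48-hour exposures of cells grown in 96-well plates, with endpoints linearly interpolated between the two concentrations bracketing the appropriate inhibition level. GI50 is the concentration that inhibits growth by half. TGI: total growth inhibition.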

Columns and labels:
Test in all cases: NCI anticancer screen, dose series, 48 h
PC-3 prostate = system: PC-3 prostate
MDA-MB-435 = system: MDA-MB-435
KM12 colon = system: KM12 colon
UACC-62 melanoma = system: UACC-62 melanoma
HCC-2998 colon = system: HCC-2998 colon
SF-268 CNS = system: SF-268 CNS
HT29 colon = system: HT29 colon
CCRF-CEM leukemia = system: CCRF-CEM leukemia
DU-145 prostate = system: DU-145 prostate
IGROV1 ovarian = system: IGROV1 ovarian
MDA-MB-231 breast = system: MDA-MB-231 breast
SNB-75 CNS = system: SNB-75 CNS
SK-MEL-5 melanoma = system: SK-MEL-5 melanoma
SF-539 CNS = system: SF-539 CNS
HCT-116 colon = system: HCT-116 colon
CAKI-1 renal = system: CAKI-1 renal
SNB-19 CNS = system: SNB-19 CNS
OVCAR-4 ovarian = system: OVCAR-4 ovarian
COLO 205 colon = system: COLO 205 colon
SF-295 CNS = system: SF-295 CNS
ACHN renal = system: ACHN renal
U251 CNS = system: U251 CNS
BT-549 breast = system: BT-549 breast
NCI-H226 lung = system: NCI-H226 lung
SK-MEL-28 melanoma = system: SK-MEL-28 melanoma
MCF7 breast = system: MCF7 breast
NCI-H23 lung = system: NCI-H23 lung
SK-MEL-2 melanoma = system: SK-MEL-2 melanoma
OVCAR-5 ovarian = system: OVCAR-5 ovarian
SN12C renal = system: SN12C renal
NCI-H460 lung = system: NCI-H460 lung
786-0 renal = system: 786-0 renal
SW-620 colon = system: SW-620 colon
HS 578T breast = system: HS 578T breast
TK-10 renal = system: TK-10 renal
MALME-3M melanoma = system: MALME-3M melanoma
HOP-62 NSCLC = system: HOP-62 NSCLC
A549 NSCLC = system: A549 NSCLC
UACC-257 melanoma = system: UACC-257 melanoma
T-47D breast = system: T-47D breast
HCT-15 colon = system: HCT-15 colon
A498 renal = system: A498 renal
K-562 leukemia = system: K-562 leukemia
SR leukemia = system: SR leukemia
OVCAR-8 ovarian = system: OVCAR-8 ovarian
NCI/ADR-RES ovarian = system: NCI/ADR-RES ovarian
NCI-H522 lung = system: NCI-H522 lung
RPMI-8226 leukemia = system: RPMI-8226 leukemia
MOLT-4 leukemia = system: MOLT-4 leukemia
OVCAR-3 ovarian = system: OVCAR-3 ovarian
HL-60(TB) leukemia = system: HL-60(TB) leukemia
HOP-92 NSCLC = system: HOP-92 NSCLC
RXF 393 renal = system: RXF 393 renal
SK-OV-3 ovarian = system: SK-OV-3 ovarian
UO-31 renal = system: UO-31 renal
M14 melanoma = system: M14 melanoma
LOX IMVI melanoma = system: LOX IMVI melanoma

Structure (SMILES): Fc1ccc(-c2c(-c3ccncc3)n(CCN3CCOCC3)c3cccnc23)cc1
- GI50 (PC-3 prostate): > 25 µM
- TGI (PC-3 prostate): > 25 µM
- GI50 (MDA-MB-435): > 25 µM
- TGI (MDA-MB-435): > 25 µM
- GI50 (KM12 colon): > 25 µM
- TGI (KM12 colon): > 25 µM
- GI50 (UACC-62 melanoma): > 25 µM
- TGI (UACC-62 melanoma): > 25 µM
- GI50 (HCC-2998 colon): > 25 µM
- TGI (HCC-2998 colon): > 25 µM
- GI50 (SF-268 CNS): > 25 µM
- TGI (SF-268 CNS): > 25 µM
- GI50 (HT29 colon): > 25 µM
- TGI (HT29 colon): > 25 µM
- GI50 (CCRF-CEM leukemia): > 25 µM
- TGI (CCRF-CEM leukemia): > 25 µM
- GI50 (DU-145 prostate): > 25 µM
- TGI (DU-145 prostate): > 25 µM
- GI50 (IGROV1 ovarian): > 25 µM
- TGI (IGROV1 ovarian): > 25 µM
- GI50 (MDA-MB-231 breast): > 25 µM
- TGI (MDA-MB-231 breast): > 25 µM
- GI50 (SNB-75 CNS): > 25 µM
- TGI (SNB-75 CNS): > 25 µM
- GI50 (SK-MEL-5 melanoma): > 25 µM
- TGI (SK-MEL-5 melanoma): > 25 µM
- GI50 (SF-539 CNS): > 25 µM
- TGI (SF-539 CNS): > 25 µM
- GI50 (HCT-116 colon): > 25 µM
- TGI (HCT-116 colon): > 25 µM
- GI50 (CAKI-1 renal): > 25 µM
- TGI (CAKI-1 renal): > 25 µM
- GI50 (SNB-19 CNS): > 25 µM
- TGI (SNB-19 CNS): > 25 µM
- GI50 (OVCAR-4 ovarian): > 25 µM
- TGI (OVCAR-4 ovarian): > 25 µM
- GI50 (COLO 205 colon): > 25 µM
- TGI (COLO 205 colon): > 25 µM
- GI50 (SF-295 CNS): > 25 µM
- TGI (SF-295 CNS): > 25 µM
- GI50 (ACHN renal): > 25 µM
- TGI (ACHN renal): > 25 µM
- GI50 (U251 CNS): > 25 µM
- TGI (U251 CNS): > 25 µM
- GI50 (BT-549 breast): > 25 µM
- TGI (BT-549 breast): > 25 µM
- GI50 (NCI-H226 lung): > 25 µM
- TGI (NCI-H226 lung): > 25 µM
- GI50 (SK-MEL-28 melanoma): > 25 µM
- TGI (SK-MEL-28 melanoma): > 25 µM
- GI50 (MCF7 breast): > 25 µM
- TGI (MCF7 breast): > 25 µM
- GI50 (NCI-H23 lung): > 25 µM
- TGI (NCI-H23 lung): > 25 µM
- GI50 (SK-MEL-2 melanoma): > 25 µM
- TGI (SK-MEL-2 melanoma): > 25 µM
- GI50 (OVCAR-5 ovarian): > 25 µM
- TGI (OVCAR-5 ovarian): > 25 µM
- GI50 (SN12C renal): > 25 µM
- TGI (SN12C renal): > 25 µM
- GI50 (NCI-H460 lung): > 25 µM
- TGI (NCI-H460 lung): > 25 µM
- GI50 (786-0 renal): > 25 µM
- TGI (786-0 renal): > 25 µM
- GI50 (SW-620 colon): > 25 µM
- TGI (SW-620 colon): > 25 µM
- GI50 (HS 578T breast): > 25 µM
- TGI (HS 578T breast): > 25 µM
- GI50 (TK-10 renal): > 25 µM
- TGI (TK-10 renal): > 25 µM
- GI50 (MALME-3M melanoma): > 25 µM
- TGI (MALME-3M melanoma): > 25 µM
- GI50 (HOP-62 NSCLC): > 25 µM
- TGI (HOP-62 NSCLC): > 25 µM
- GI50 (A549 NSCLC): > 25 µM
- TGI (A549 NSCLC): > 25 µM
- GI50 (UACC-257 melanoma): > 25 µM
- TGI (UACC-257 melanoma): > 25 µM
- GI50 (T-47D breast): > 25 µM
- TGI (T-47D breast): > 25 µM
- GI50 (HCT-15 colon): > 25 µM
- TGI (HCT-15 colon): > 25 µM
- GI50 (A498 renal): > 25 µM
- TGI (A498 renal): > 25 µM
- GI50 (K-562 leukemia): > 25 µM
- TGI (K-562 leukemia): > 25 µM
- GI50 (SR leukemia): > 25 µM
- TGI (SR leukemia): > 25 µM
- GI50 (OVCAR-8 ovarian): > 25 µM
- TGI (OVCAR-8 ovarian): > 25 µM
- GI50 (NCI/ADR-RES ovarian): > 25 µM
- TGI (NCI/ADR-RES ovarian): > 25 µM
- GI50 (NCI-H522 lung): > 25 µM
- TGI (NCI-H522 lung): > 25 µM
- GI50 (RPMI-8226 leukemia): > 25 µM
- TGI (RPMI-8226 leukemia): > 25 µM
- GI50 (MOLT-4 leukemia): > 25 µM
- TGI (MOLT-4 leukemia): > 25 µM
- GI50 (OVCAR-3 ovarian): > 25 µM
- TGI (OVCAR-3 ovarian): > 25 µM
- GI50 (HL-60(TB) leukemia): > 25 µM
- TGI (HL-60(TB) leukemia): > 25 µM
- GI50 (HOP-92 NSCLC): 2.2 µM
- TGI (HOP-92 NSCLC): > 25 µM
- GI50 (RXF 393 renal): > 25 µM
- TGI (RXF 393 renal): > 25 µM
- GI50 (SK-OV-3 ovarian): > 25 µM
- TGI (SK-OV-3 ovarian): > 25 µM
- GI50 (UO-31 renal): > 5.79 µM
- TGI (UO-31 renal): > 25 µM
- GI50 (M14 melanoma): > 25 µM
- TGI (M14 melanoma): > 25 µM
- GI50 (LOX IMVI melanoma): > 25 µM
- TGI (LOX IMVI melanoma): > 25 µM
